Measurements reported in ChEMBL document CHEMBL5154887, “Novel CRBN-Recruiting Proteolysis-Targeting Chimeras as Degraders of Stimulator of Interferon Genes with In Vivo Anti-Inflammatory Efficacy” (J Med Chem, 2022).
Activity calls are given as the source filed them. No cut-off for these calls is given here.

What was measured:
THP-1 [1] = assay: Inhibition of cGAS-STING signalling pathway in human THP-1 cells assessed as downregulation of cGAMP-triggered IFN-beta expression preincubated for 2 hrs followed by cGAMP stimulation and measured after 24 hrs by ELISA; format: cell-based; details: dose 2.5-20 µM, time 26.0 hrs, DDE = dose-dependent effect
Mus musculus [2] = assay: Antiinflammatory activity against cisplatin-induced acute kidney injury in C57BL/6J mouse model assessed as reduction in kidney weight at 60 mg/kg, ip pretreated for 1 hr followed by cisplatin administration and measured after 72 hrs relative to control; format: functional; set-up: scale not given: the % may be the effect or the level left; details: time 73 hrs
[3] = Half life in Sprague-Dawley rat at 20 mg/kg, po measured upto 48 hrs by UPLC-triple quadrupole MS analysis; format: ADME, organism-based; details: in vivo
[4] = Oral bioavailability in Sprague-Dawley rat at 20 mg/kg measured upto 48 hrs by UPLC-triple quadrupole MS analysis; format: ADME, organism-based; details: in vivo
[5] = Toxicity in cisplatin-induced acute kidney injury in C57BL/6J mouse model assessed as tubular obstruction in kidney at 30 to 60 mg/kg, ip pretreated for 1 hr followed by cisplatin administration and measured after 72 hrs by H and E staining based analysis; format: organism-based; details: in vivo, 73 h, dose 30-60 mg/kg
[6] = Apparent volume of distribution in Sprague-Dawley rat at 2 mg/kg, iv measured upto 48 hrs by UPLC-triple quadrupole MS analysis; format: ADME, organism-based; details: in vivo, read-out: Vz
[7] = Renal toxicity in C57BL/6J mouse assessed as reduction in BUN level at 30 mg/kg, ip (Rvb= 8.9 mmol/L); format: organism-based; details: in vivo
[8] = AUC (0 to t) in Sprague-Dawley rat at 20 mg/kg, po measured upto 48 hrs by UPLC-triple quadrupole MS analysis; format: ADME, organism-based; set-up: dose 20 mg/kg, time < 48 hrs, route po; details: in vivo
Mus musculus [9] = assay: Renal protective activity against cisplatin-induced acute kidney injury in C57BL/6J mouse model assessed as reduction in abnormal signal intensities of T2 at 60 mg/kg, ip by NMR based analysis; format: functional, organism-based
[10] = target: Stimulator of interferon genes protein (Homo sapiens) (UniProt Q86WV6); assay: Inhibition of STING pathway in human THP-1 cells assessed as inhibition of cGAMP-triggered NF-kappaB p-p65 expression preincubated for 2 hrs followed by cGAMP stimulation and measured after 24 hrs by Western blot analysis; format: cell-based; details: dose 0-20 µM, time 26.0 hrs, DDE = dose-dependent effect
Sequence of Stimulator of interferon genes protein (Homo sapiens) (Q86WV6 whole entry): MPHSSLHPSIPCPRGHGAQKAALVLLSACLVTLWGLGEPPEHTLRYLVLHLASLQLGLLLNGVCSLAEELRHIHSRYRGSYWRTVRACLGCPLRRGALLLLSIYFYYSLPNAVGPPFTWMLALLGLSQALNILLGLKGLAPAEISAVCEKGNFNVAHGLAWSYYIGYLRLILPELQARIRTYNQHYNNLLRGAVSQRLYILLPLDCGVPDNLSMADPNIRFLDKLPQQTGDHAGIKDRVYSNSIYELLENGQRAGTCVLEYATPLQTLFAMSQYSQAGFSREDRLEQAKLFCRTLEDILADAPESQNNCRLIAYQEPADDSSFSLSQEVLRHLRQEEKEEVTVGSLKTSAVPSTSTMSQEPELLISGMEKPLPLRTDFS

[11] = Toxicity in C57BL/6J mouse model of cisplatin-induced acute kidney injury assessed as survival rate at 30 mg/kg, ip pretreated for 1 hr followed by cisplatin administration and measured after 72 hrs relative to control; format: organism-based; details: in vivo, 73 h
[12] = Toxicity in cisplatin-induced acute kidney injury in C57BL/6J mouse model assessed as morphological abnormalities in liver at 30 to 60 mg/kg, ip pretreated for 1 hr followed by cisplatin administration and measured after 72 hrs by H and E staining based analysis; format: organism-based; details: in vivo, 73 h, dose 30-60 mg/kg
[13] = Cytotoxicity against mouse C17.2 cells assessed as cell growth inhibition at 30 uM by MTT assay relative to control; format: toxicity, cell-based
Mus musculus [14] = assay: In vivo inhibition of STING signalling pathway in ip dosed cisplatin-induced acute kidney injury in C57BL/6J mouse model assessed as reduction in CXCL10 expression in blood of mouse eyeballs pretreated for 1 hr followed by cisplatin administration and measured after 72 hrs by ELISA; format: functional, organism-based; details: time 73.0 hrs, DDE = dose-dependent effect
[15] = Tmax in Sprague-Dawley rat at 20 mg/kg, po measured upto 48 hrs by UPLC-triple quadrupole MS analysis; format: ADME, organism-based; details: in vivo
THP-1 [16] = assay: Inhibition of cGAS-STING signalling pathway in human THP-1 cells assessed as downregulation of cGAMP-triggered IL-6 expression preincubated for 2 hrs followed by cGAMP stimulation and measured after 24 hrs by ELISA; format: cell-based; details: dose 2.5-20 µM, time 26.0 hrs, DDE = dose-dependent effect
Mus musculus [17] = assay: Renal protective activity against cisplatin-induced acute kidney injury in C57BL/6J mouse model assessed as clear cortical medullary demarcation at 60 mg/kg, ip by NMR based analysis; format: functional, organism-based
[18] = MRT (0 to t) in Sprague-Dawley rat at 2 mg/kg, iv measured upto 48 hrs by UPLC-triple quadrupole MS analysis; format: ADME, organism-based; details: in vivo
Mus musculus [19] = assay: Renal protective activity against cisplatin-induced acute kidney injury in C57BL/6J mouse model assessed as reduction in kidney swelling at 60 mg/kg, ip by NMR based analysis; format: functional, organism-based
[20] = Renal toxicity in C57BL/6J mouse assessed as reduction in creatinine level at 60 mg/kg, ip (Rvb= 8.5 umol/L); format: organism-based; details: in vivo
[21] = AUC (0 to infinity) in Sprague-Dawley rat at 20 mg/kg, po measured upto 48 hrs by UPLC-triple quadrupole MS analysis; format: ADME, organism-based; set-up: dose 20 mg/kg, time < 48 hrs, route po; details: in vivo
[22] = Clearance in Sprague-Dawley rat at 20 mg/kg, po measured upto 48 hrs by UPLC-triple quadrupole MS analysis; format: ADME, organism-based; details: in vivo
[23] = Toxicity in cisplatin-induced acute kidney injury in C57BL/6J mouse model assessed as vacuole like changes in kidney at 30 to 60 mg/kg, ip pretreated for 1 hr followed by cisplatin administration and measured after 72 hrs by H and E staining based analysis; format: organism-based; details: in vivo, 73 h, dose 30-60 mg/kg
[24] = target: T1, Protein cereblon/Stimulator of interferon genes protein (Homo sapiens, UniProt Q96SW2+Q86WV6); assay: Protac activity at CRBN/STING in human THP-1 cells assessed as increase in STING degradation at 10 uM pretreated with lysosome inhibitor BAF for 1 hr followed by compound addition and measured after 48 hrs by Western blot analysis; format: cell-based
T1 sequence (Q86WV6 whole entry, looked up): as the sequence (Q86WV6 whole entry) above
T1 sequence (Q96SW2 whole entry, looked up): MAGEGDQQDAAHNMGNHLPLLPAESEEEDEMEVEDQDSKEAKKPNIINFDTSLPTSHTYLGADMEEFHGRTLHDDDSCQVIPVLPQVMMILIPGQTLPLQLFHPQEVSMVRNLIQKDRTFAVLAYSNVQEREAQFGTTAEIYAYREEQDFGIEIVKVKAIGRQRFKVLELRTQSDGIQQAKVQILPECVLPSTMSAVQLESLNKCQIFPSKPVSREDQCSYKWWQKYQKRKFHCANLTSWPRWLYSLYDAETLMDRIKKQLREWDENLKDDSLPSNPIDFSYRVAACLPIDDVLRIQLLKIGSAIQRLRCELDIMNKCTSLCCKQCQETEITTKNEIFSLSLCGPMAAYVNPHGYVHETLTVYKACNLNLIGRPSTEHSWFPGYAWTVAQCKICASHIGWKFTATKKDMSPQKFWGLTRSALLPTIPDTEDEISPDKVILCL

[25] = In vivo inhibition of STING signalling pathway in cisplatin-induced acute kidney injury in C57BL/6J mouse model assessed as reduction in STING protein expression in kidney at 60 mg/kg, ip pretreated for 1 hr followed by cisplatin administration and measured after 72 hrs by Western blot analysis (Rvb= 375%); format: functional; set-up: scale not given: the % may be the effect or the level left; details: time 73 hrs
[26] = Toxicity in cisplatin-induced acute kidney injury in C57BL/6J mouse model assessed as morphological abnormalities in heart at 30 to 60 mg/kg, ip pretreated for 1 hr followed by cisplatin administration and measured after 72 hrs by H and E staining based analysis; format: organism-based; details: in vivo, 73 h, dose 30-60 mg/kg
[27] = Cytotoxicity against HEK293-A cells assessed as cell growth inhibition at 30 uM by MTT assay relative to control; format: toxicity, cell-based; details: human
[28] = Clearance in Sprague-Dawley rat at 2 mg/kg, iv measured upto 48 hrs by UPLC-triple quadrupole MS analysis; format: ADME, organism-based; details: in vivo
[29] = target: T1, Protein cereblon/Stimulator of interferon genes protein; assay: Protac activity at CRBN/STING in human THP-1 cells assessed as increase in STING degradation at 10 uM measured after 4 to 48 hrs by Western blot analysis; format: cell-based; details: time 4-48 hrs, TDE = time-dependent effect
Mus musculus [30] = assay: Antiinflammatory activity against cisplatin-induced acute kidney injury in C57BL/6J mouse model assessed as reduction in kidney weight at 30 mg/kg, ip pretreated for 1 hr followed by cisplatin administration and measured after 72 hrs relative to control; format: functional; set-up: scale not given: the % may be the effect or the level left; details: time 73 hrs
[31] = Half life in Sprague-Dawley rat at 2 mg/kg, iv measured upto 48 hrs by UPLC-triple quadrupole MS analysis; format: ADME, organism-based; details: in vivo
[32] = AUC (0 to t) in Sprague-Dawley rat at 2 mg/kg, iv measured upto 48 hrs by UPLC-triple quadrupole MS analysis; format: ADME, organism-based; set-up: time < 48 hrs, dose 2 mg/kg, route iv; details: in vivo

O=C(/C=C/C(=O)Nc1ccc(NC(=O)c2ccc([N+](=O)[O-])o2)cc1)NCCCCCCNc1cccc2c1C(=O)N(C1CCC(=O)NC1=O)C2=O (configuration not stated)
Activity (THP-1 [1]): Dde | Activity (Mus musculus [2]): 26% | half-life [3]: 442 min | bioavailability [4]: 2.15% | Activity [5]: Non-Toxic | Vd [6]: 38 L/kg | Activity [7]: 27.2 mmol/L | AUC(0-t) at 48 h [8]: 52.2 ng·h/mL | Activity (Mus musculus [9]): Active | inhibition [10]: Dde | Survival [11]: 89% | Activity [12]: Non-Toxic | inhibition at 30 µM [13]: 15.6% | inhibition (Mus musculus [14]): Dde | Tmax [15]: 3.71 h | Activity (THP-1 [16]): Dde | Activity (Mus musculus [17]): Active | MRT last at 48 h [18]: 1.74 h | Activity (Mus musculus [19]): Active | Activity [20]: 14.8 µmol/L | AUC(0-inf) [21]: 55.7 ng·h/mL | CL/F [22]: 7160 mL/min/kg | Activity [23]: Non-Toxic | Activity [24]: Active | Activity [25]: 70% | Activity [26]: Non-Toxic | inhibition at 30 µM [27]: 11% | clearance [28]: 113 mL/min/kg | Activity [29]: Tde | Activity (Mus musculus [30]): 14% | half-life [31]: 232 min | AUC(0-t) at 48 h [32]: 257 ng·h/mL
